The text below walks through data of ChEMBL document CHEMBL1133792, “Synthesis, absolute configuration and antimuscarinic activity of the enantiomers of [1-(2,2-diphenyl-[1,3]dioxolan-4-yl)-ethyl]-dimethyl-amine” (Bioorg Med Chem Lett, 2001).

The term pKb denotes the negative decadic logarithm of the Kb, by convention in mol/L. Read a high pKb as a small Kb.

Assay [1] concerns the target Muscarinic acetylcholine receptor M3 (Cavia porcellus) (UniProt Q8VH26). The assay is described as follows: Affinity for Muscarinic acetylcholine receptor M3 of guinea pig ileum. Type of assay: tissue-based.
The target in assay [2] is T1, Muscarinic acetylcholine receptor M1 (Homo sapiens) (UniProt P11229).
T1 sequence (whole entry): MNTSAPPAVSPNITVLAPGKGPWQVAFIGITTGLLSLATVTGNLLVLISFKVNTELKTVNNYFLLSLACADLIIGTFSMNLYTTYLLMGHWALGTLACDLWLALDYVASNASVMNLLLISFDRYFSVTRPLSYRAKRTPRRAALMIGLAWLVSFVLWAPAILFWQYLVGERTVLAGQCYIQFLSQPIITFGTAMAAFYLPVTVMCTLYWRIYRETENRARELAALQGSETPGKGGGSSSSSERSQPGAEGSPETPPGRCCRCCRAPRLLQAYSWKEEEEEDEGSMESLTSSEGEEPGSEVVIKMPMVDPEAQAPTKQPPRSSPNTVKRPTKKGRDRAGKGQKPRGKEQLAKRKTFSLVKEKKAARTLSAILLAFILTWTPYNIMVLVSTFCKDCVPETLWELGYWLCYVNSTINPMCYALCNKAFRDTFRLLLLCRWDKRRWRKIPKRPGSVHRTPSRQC
In words: Affinity for Muscarinic acetylcholine receptor M1 of rabbit vas deferens. Conditions: Oryctolagus cuniculus; target entry is the homologue from another species.

The target of assay [3] is T2, Muscarinic acetylcholine receptor M2 (Homo sapiens) (UniProt P08172).
T2 sequence (whole entry): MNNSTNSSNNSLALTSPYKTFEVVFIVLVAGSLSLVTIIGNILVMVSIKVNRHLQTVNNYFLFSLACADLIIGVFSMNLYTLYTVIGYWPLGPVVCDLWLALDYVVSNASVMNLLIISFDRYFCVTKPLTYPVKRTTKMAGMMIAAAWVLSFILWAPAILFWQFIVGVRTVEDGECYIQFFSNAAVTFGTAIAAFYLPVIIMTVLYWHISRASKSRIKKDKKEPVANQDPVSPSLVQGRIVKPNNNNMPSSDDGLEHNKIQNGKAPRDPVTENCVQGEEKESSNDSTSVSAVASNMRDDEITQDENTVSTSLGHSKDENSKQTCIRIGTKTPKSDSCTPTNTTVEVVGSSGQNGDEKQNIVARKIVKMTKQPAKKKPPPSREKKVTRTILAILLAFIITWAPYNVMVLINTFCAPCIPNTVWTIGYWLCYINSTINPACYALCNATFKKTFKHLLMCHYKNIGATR
The assay is described as follows: Affinity for Muscarinic acetylcholine receptor M2 of guinea pig heart. Conditions: Cavia porcellus; target entry is the homologue from another species.

Chain of Muscarinic acetylcholine receptor M3 (Cavia porcellus) (Q8VH26 1-587): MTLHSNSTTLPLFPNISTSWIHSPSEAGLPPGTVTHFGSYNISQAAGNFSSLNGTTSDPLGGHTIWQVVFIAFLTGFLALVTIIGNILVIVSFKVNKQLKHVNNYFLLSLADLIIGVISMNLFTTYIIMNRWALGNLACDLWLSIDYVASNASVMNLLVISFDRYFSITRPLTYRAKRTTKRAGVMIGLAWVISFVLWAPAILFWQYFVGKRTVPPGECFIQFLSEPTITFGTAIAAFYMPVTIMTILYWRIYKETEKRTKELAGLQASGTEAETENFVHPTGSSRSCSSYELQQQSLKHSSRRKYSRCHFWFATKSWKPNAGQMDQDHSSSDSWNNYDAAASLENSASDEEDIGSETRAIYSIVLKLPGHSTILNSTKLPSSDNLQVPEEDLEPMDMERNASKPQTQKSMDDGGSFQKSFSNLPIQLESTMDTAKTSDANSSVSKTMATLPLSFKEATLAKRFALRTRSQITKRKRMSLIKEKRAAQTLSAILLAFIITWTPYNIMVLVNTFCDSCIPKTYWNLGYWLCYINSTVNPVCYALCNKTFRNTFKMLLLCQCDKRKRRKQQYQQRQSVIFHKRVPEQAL

As for `CC(C1COC(c2ccccc2)(c2ccccc2)O1)[N+](C)(C)C` (racemic; form 2), the pKb in assay [1] is 7.92; in assay [2], 7.82; in assay [3] it was 8.07.
With `C[C@H]([C@@H]1COC(c2ccccc2)(c2ccccc2)O1)[N+](C)(C)C`, the negative logarithm of the Kb (pKb) is 8.4 in assay [1], 8.23 in assay [2] and 8.38 in assay [3].
Consider `CC(C1COC(c2ccccc2)(c2ccccc2)O1)N(C)C` (racemic; form 2), for which the negative-log Kb (pKb) stood at 7.94 in assay [1], 8.11 in assay [2] and 8.03 in assay [3].
The like results for `C[C@@H]([C@H]1COC(c2ccccc2)(c2ccccc2)O1)[N+](C)(C)C` were, in that order, 7.85, 7.47 and 7.82.
For `CC(C1COC(c2ccccc2)(c2ccccc2)O1)N(C)C` (racemic; form 1) the same measures were 6.96, 6.95 and 7.2.
With `CN(C)CC1COC(c2ccccc2)(c2ccccc2)O1` (centres undefined), the pKb came out at 6.72 in assay [1], 7.15 in assay [2] and 7.11 in assay [3].
Regarding `C[C@@H](C1COC(c2ccccc2)(c2ccccc2)O1)[N+](C)(C)C` (some centres undefined), the pKb in assay [1] was 8; in assay [2], 7.12; in assay [3] it was 8.21.
As for `C[C@H]([C@@H]1COC(c2ccccc2)(c2ccccc2)O1)N(C)C`, the figures for the pKb in assay [1], in assay [2] and in assay [3] were 7.45, 6.83 and 7.47, respectively.
Regarding `C[C@@H](C1COC(c2ccccc2)(c2ccccc2)O1)N(C)C` (some centres undefined), the pKb in assay [1] amounted to 7.19; in assay [2], 6.94; in assay [3], 7.35.
Turning to `C[C@H](C1COC(c2ccccc2)(c2ccccc2)O1)[N+](C)(C)C` (some centres undefined), the results for the negative logarithm of the Kb (pKb) in assay [1], in assay [2] and in assay [3] were 7.51, 8.24 and 7.53, respectively.
As for `C[C@@H]([C@H]1COC(c2ccccc2)(c2ccccc2)O1)N(C)C`, the pKb was found to be 8.92 in assay [1], 8.46 in assay [2] and 8.39 in assay [3].
Regarding `C[C@H](C1COC(c2ccccc2)(c2ccccc2)O1)N(C)C` (some centres undefined), the pKb in assay [1] worked out at 6.41; in assay [2], 6.52; in assay [3], 6.41.
Turning to `CC(C1COC(c2ccccc2)(c2ccccc2)O1)[N+](C)(C)C` (racemic; form 1), the negative-log Kb (pKb) in assay [1] was 8.3; in assay [2] it was 8.01; in assay [3], 8.22.
